The values that follow come from article PMC12118337, “Development of a Peptide Inhibitor Targeting the C‐SH2 Domain of the SHP2 Phosphatase” (Chembiochem, 2025).

Residues, ends and D or L forms follow the SMILES beside them. *: point of attachment. 5FAM = O=C1OC2(c3ccc(O)cc3Oc3cc(O)ccc32)c2ccc(C(=O)*)cc21; X1 = O=C(O)C(C(=O)O)*

The test addresses T1, SHP2 C‐SH2 domain (Homo sapiens, UniProt Q06124).
T1 construct: SHP2 N-SH2 domain (1–105), C-SH2 domain (106–220), PTP domain (224–541) and; His6 (pETM22 vector) (N, cleaved yes); made in house; host or cells: E. coli BL21(DE3)
T1 sequence (Q06124 106-220): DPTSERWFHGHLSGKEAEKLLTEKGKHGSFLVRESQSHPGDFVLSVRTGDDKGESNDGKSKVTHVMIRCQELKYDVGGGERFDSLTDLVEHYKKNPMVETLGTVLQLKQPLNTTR
Description: Fluorescence polarization (FP) binding assay, SHP2 C-SH2 domain. The note with it: 100 nM FAM-labelled peptide, increasing C-SH2 protein, 50 mM HEPES pH 7.5, 150 mM NaCl, 1 mM EDTA, 0.05% Tween 20, FP at 10 min, three independent experiments in technical triplicates, read-out: K D ± SEM, C‐SH2 (FP). The procedure:
buffer and stored in 5 mL binding buffer at 4°C. His-tagged 3C protease (0.5 mg; EMBL) was added to the pooled eluted fractions and dialysed using Spectra Por Dialysis Tubing (MWCO 6-8 kDa, 23 mm; Spectrum Labs) in 1 L of binding buffer at 4°C for 3 hours, then overnight in fresh buffer. A new column was prepared by loading 2 mL Ni-NTA Agarose (Invitrogen) as a 50% slurry in EtOH. The column was washed with 10 mL H2O to remove the EtOH and equilibrated with 10 mL binding buffer. The protein/3C protease mixture was loaded onto the column and incubated for 1 hour at 4°C on a rocker. The flow through containing the protein was collected, the column was washed with 100 mL binding buffer and the 3C protease was eluted with 5 mL elution buffer. Protein purification was monitored by SDS-PAGE using NuPAGE 4-12% Bis-Tris Protein Gels (Invitrogen) run in MOPS buffer (50 mM MOPS, 50 mM Tris-HCl pH 7.7, 1 mM EDTA, 0.1% SDS) followed by Coomassie staining using Coomassie Brilliant Blue (Roth). The purified protein was dialysed into the final storage buffer (50 mM HEPES pH 7.5, 150 mM NaCl, 2 mM DTT, 20% glycerol). Aliquots were prepared and stored at -80°C until required. […]
4. Fluorescence polarization
Fluorescence polarization (FP) was used to measure the binding of FAM-labelled peptides to the SHP2 C-SH2, SHP2 N-SH2, SHP2 PTP, CSK SH2 or Src SH2 domains. Each peptide was added to increasing concentrations of SHP2 C-SH2, SHP2 N-SH2, SHP2 PTP, CSK SH2 or Src SH2 protein in FP buffer (50 mM HEPES pH 7.5, 150 mM NaCl, 1 mM EDTA, 0.05% Tween 20) to give a final peptide […]
concentration of 100 nM in a final volume of 200 µL. For baseline subtraction, each peptide was added to FP buffer, instead of protein, with a final peptide concentration of 100 nM in a final volume of 200 µL. Samples were mixed gently then 3 x 60 µL of each sample was transferred into triplicate wells in a 96-well plate (OptiPlate-96 F Black; PerkinElmer). The FP was immediately measured on a Synergy H1 Microplate Reader (BioTek) with the excitation and emission monitored at 485 nm and 528 nm, respectively, over 30 minutes. FP values were automatically calculated by the Gen5 3.03 (BioTek) software associated with the microplate reader. Data were analysed in Excel 2016 by subtracting baseline values from FP values at 10 minutes. Data were then further analysed in GraphPad Prism 6 by plotting the baseline subtracted FP values against the protein concentration and fitting the data to a variable slope model of non-linear regression to obtain the KD values. Data are from three independent experiments, each performed in technical triplicates.
5. Isothermal titration calorimetry […]
Analysis Software (Malvern Panalytical). For the data analysis, a 1:1 binding stoichiometry between the Ac-ITSM(pTyr) and SH2 domain was assumed. ITC measurements were performed once.
For orientation: Polarisation of emitted light reports the rotation of a fluorescent probe.

On to `CC[C@H](C)[C@H](NC(=O)[C@@H](NC(=O)[C@H](C)NC(=O)[C@H](Cc1ccc(OC(C(=O)O)C(=O)O)cc1)NC(=O)[C@H](CCC(=O)O)NC(=O)[C@@H](NC(=O)[C@H](CCC(N)=O)NC(=O)c1ccc2c(c1)C(=O)OC21c2ccc(O)cc2Oc2cc(O)ccc21)[C@@H](C)O)[C@@H](C)O)C(=O)N[C@@H](CCCCN)C(=O)N[C@@H](Cc1c[nH]cn1)C(=O)N1CCC[C@H]1C(N)=O` [peptide 26] (5FAM-QTEY(X1)ATIKHP-NH2), for which the Kd was found to be 1600 ± 388 nM.
